These results are taken from ChEMBL document CHEMBL1139388, “Crystal structure of the Homo sapiens kynureninase-3-hydroxyhippuric acid inhibitor complex: insights into the molecular basis of kynureninase substrate specificity” (J Med Chem, 2009).

The source made the active and inactive calls. The rule behind the calls is not given here.

This experiment deals with T1, Kynureninase (Homo sapiens) (UniProt Q16719).
T1 sequence (whole entry): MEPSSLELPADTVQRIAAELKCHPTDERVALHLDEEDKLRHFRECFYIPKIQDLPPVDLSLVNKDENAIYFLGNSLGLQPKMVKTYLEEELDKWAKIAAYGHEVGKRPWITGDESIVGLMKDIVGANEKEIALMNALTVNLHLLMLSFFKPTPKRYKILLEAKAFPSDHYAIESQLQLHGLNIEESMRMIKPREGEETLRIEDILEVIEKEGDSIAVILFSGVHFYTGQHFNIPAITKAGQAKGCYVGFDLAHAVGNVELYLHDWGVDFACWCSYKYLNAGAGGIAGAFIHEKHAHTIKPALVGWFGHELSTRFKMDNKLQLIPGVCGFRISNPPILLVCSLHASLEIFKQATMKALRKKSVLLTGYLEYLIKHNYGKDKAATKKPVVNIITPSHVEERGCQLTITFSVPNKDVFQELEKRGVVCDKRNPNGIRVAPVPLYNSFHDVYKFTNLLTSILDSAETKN
As to the kind of experiment: Inhibition of human kynureninase at 1 mM.

For the compound `O=C(O)CNC(=O)c1ccccc1`, the outcome was inactive.

For the compound `Nc1c(O)cccc1C(=O)NCC(=O)O`, the result was inactive.
